The nature of data set [1]: Tmax in CD-1 mouse brain at 0.1 mg/kg, iv administered as bolus dose in presence of ENT1 inhibitor NBMPR-P. In kind it is ADME, organism-based. Set-up: dose 0.1 mg/kg, route intravenous.
Data set [2] can be described thus: Tmax in CD-1 mouse brain at 0.1 mg/kg, iv administered as bolus dose in absence of ENT1 inhibitor NBMPR-P. In kind it is ADME, organism-based. Details: dose 0.1 mg/kg, route intravenous.
Data set [3] deals with T1, Sodium/nucleoside cotransporter 1 (Homo sapiens, UniProt O00337).
T1 sequence (O00337 whole entry): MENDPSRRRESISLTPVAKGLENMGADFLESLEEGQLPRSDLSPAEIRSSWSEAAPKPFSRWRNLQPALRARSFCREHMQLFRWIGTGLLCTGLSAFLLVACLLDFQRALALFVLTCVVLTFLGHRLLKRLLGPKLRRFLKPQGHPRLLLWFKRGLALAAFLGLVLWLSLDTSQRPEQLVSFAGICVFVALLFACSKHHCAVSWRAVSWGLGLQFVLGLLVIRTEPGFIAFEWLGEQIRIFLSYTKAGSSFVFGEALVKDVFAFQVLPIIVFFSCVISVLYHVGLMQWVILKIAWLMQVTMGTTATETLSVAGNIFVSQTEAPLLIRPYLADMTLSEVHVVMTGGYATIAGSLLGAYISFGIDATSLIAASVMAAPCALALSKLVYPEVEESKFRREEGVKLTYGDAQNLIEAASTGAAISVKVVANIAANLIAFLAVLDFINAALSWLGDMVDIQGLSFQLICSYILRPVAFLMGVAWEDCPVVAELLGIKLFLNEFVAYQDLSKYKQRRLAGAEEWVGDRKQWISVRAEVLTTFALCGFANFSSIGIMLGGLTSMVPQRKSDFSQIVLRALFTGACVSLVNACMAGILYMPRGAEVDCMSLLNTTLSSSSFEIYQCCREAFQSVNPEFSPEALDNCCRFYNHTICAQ
In words: Binding affinity to recombinant human CNT1 expressed in Saccharomyces cerevisiae assessed as inhibition of [3H]-uridine transport after 15 mins by scintillation counting analysis. In kind it is ADME.

Data set [4] has as its target T2, Equilibrative nucleoside transporter 1 (Homo sapiens, UniProt Q99808).
T2 sequence (Q99808 whole entry): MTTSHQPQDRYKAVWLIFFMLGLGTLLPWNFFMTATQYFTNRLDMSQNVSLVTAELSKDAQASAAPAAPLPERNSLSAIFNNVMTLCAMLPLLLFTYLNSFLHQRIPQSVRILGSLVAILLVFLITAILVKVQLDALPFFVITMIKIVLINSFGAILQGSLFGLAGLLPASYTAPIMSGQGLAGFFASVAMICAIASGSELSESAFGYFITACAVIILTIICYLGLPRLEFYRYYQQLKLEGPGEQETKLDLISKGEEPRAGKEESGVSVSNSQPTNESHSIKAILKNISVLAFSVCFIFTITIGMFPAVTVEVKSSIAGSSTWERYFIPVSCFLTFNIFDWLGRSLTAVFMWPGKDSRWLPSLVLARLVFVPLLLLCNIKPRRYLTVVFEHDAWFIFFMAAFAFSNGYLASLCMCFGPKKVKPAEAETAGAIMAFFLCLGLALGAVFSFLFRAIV
In words: Drug transport in human CCRF-CEM cells assessed as ENT1-mediated uptake measured per 10^6 cells after 5 secs by Michaelis-Menten equation analysis. The data set is classed as ADME, cell-based. The following applies: 5 s.

For data set [5], the species on record is Xenopus laevis. In words: Drug uptake in water-injected Xenopus laevis oocytes up to 1 mM measured per 2 mins. In kind it is ADME, organism-based. Conditions: in vivo.
Data set [6] in a line: Cmax in CD-1 mouse brain at 0.1 mg/kg, iv administered as bolus dose in presence of ENT1 inhibitor NBMPR-P. In kind it is ADME, organism-based. Set-up: dose 0.1 mg/kg, route intravenous.
Data set [7] has as its system Brain. In words: AUC (0 to 4 hrs) in CD-1 mouse brain at 0.1 mg/kg, iv administered as bolus dose in absence of ENT1 inhibitor NBMPR-P. The data set is classed as ADME, organism-based. Set-up: time < 4 hr, dose 0.1 mg/kg, route intravenous. The following applies: in vivo.
Data set [8] is described as follows: Apparent volume of distribution at steady state in CD-1 mouse at 0.1 mg/kg, iv administered as bolus dose in absence of ENT1 inhibitor NBMPR-P. In kind it is ADME, organism-based. Details: dose 0.1 mg/kg, route intravenous. Conditions: in vivo, read-out: Vdss(app).
The nature of data set [9]: Apparent volume of distribution at steady state in CD-1 mouse at 0.1 mg/kg, iv administered as bolus dose in presence of ENT1 inhibitor NBMPR-P. The data set is classed as ADME, organism-based. Details: dose 0.1 mg/kg, route intravenous. The following applies: in vivo, read-out: Vdss(app).
Data set [10] can be described thus: Elimination half life in CD-1 mouse at 0.1 mg/kg, iv administered as bolus dose in absence of ENT1 inhibitor NBMPR-P. In kind it is ADME, organism-based. Set-up: dose 0.1 mg/kg, route intravenous. The following applies: in vivo, read-out: beta t1/2 (converted).
Data set [11] is described as follows: AUC (0 to infinity) in CD-1 mouse at 0.1 mg/kg, iv administered as bolus dose in absence of ENT1 inhibitor NBMPR-P. The data set is classed as ADME, organism-based. Details: time infinity, dose 0.1 mg/kg, route intravenous. Conditions: plasma.
Data set [12] concerns the target T3, ENT1 (equilibrative nucleoside transporter 1) (Homo sapiens, UniProt Q99808).
T3 sequence (Q99808 whole entry): T2 sequence (Q99808 whole entry)
In words: Drug transport in Xenopus laevis oocytes assessed as recombinant human ENT1-mediated uptake up to 1 mM by Michaelis-Menten equation analysis. In kind it is ADME, cell-based. The following applies: Xenopus laevis oocytes expressing recombinant human ENT1, read-out: Km(app).

Data set [13] addresses T3, ENT1 (equilibrative nucleoside transporter 1). In words: Drug transport in human CCRF-CEM cells assessed as ENT1-mediated uptake after 5 secs by Michaelis-Menten equation analysis. The data set is classed as ADME, cell-based.

The structures appear in SMILES notation.

On to `OC[C@H]1O[C@@H](n2cnc3c(N[C@@H]4CCOC4)ncnc32)[C@H](O)[C@@H]1O` [TECADENOSON], for which the Tmax in [1] stood at 11.4 min; in data set [2] it was 6.6 min. Also, the concentration for half-maximal inhibition (IC50) in [3] turned out to be 41 µM. For the same molecule, the Ki in data set [3] (read-out: Ki(app)) is 37 µM. Further, the Vmax in [4] was 3.4 pmol. Also, the Drug uptake in data set [5] came out at 5 pmol. Further, the Cmax in [6] was 4 ng/g. Also, the AUC in data set [7] came out at 22 ng·h/g. The Vd in data set [8] is 2.8 L/kg; in data set [9] it was 2.2 L/kg. Also, the half-life in data set [10] was 42 min. In addition, in [11], the AUC(0-inf) is 16.4 ng·h/mL. The Km in data set [12] was 196 µM. Further, in data set [13], the Km at 5 s was 24 µM.

For the origin of these results see ChEMBL document CHEMBL3526052 (Drug Metab Dispos, 2013).
